These are literature values, as cited in patent US9034798B2, “Capture compounds, collections thereof and methods for analyzing the proteome and complex compositions” (CAPROTEC BIOANALYTICS GMBH, priority 2003, dated 2015).

For the data set the following is noted: for deaths: reported before withdrawal from the market; for drug-induced hepatotoxicity: clinical studies; for heart failure: six male patients with poor heart and kidney function.

Regarding `Cc1c(C)c2c(c(C)c1O)CCC(C)(COc1ccc(CC3SC(=O)NC3=O)cc1)O2` (stereo not drawn) [Rezulin, Troglitazone], the deaths was 398 deaths. Take `COCc1c(C(C)C)nc(C(C)C)c(/C=C/[C@@H](O)C[C@@H](O)CC(=O)O)c1-c1ccc(F)cc1` [Baycol, cerivastatin sodium]: the deaths is on record as 31 deaths.

`CCc1ccc(CCOc2ccc(CC3SC(=O)NC3=O)cc2)nc1` (stereo not drawn) [Actos, Pioglitazone]: the drug-induced hepatotoxicity entry was “no evidence of drug-induced hepatotoxicity” and the heart failure entry is recorded as “caused heart failure”. Regarding `CN(CCOc1ccc(CC2SC(=O)NC2=O)cc1)c1ccccn1` (stereo not drawn) [Avandia, Rosiglitazone], the drug-induced hepatotoxicity result was “no evidence of drug-induced hepatotoxicity” and the heart failure result was “caused heart failure”.
